This note sets out measurements from patent publication US4434290A, “Pyrido (4,3-B) carbazoles substituted in the 1 position by a polyamine chain” (priority 1978, dated 1984).

The subject of one data set is L1210 cells. The data set is described as follows: In vitro cytotoxic study on leukemia L1210 cells, complete inhibition of growth (Table XVI). It counts as cell-based. To be noted: for IC (100 (complete growth inhibition, minimal)): Mus musculus, read-out: Minimal dose leading to a complete inhibition of the growth. As to the method:
(§1) Cytotoxic "in vitro" study on hamster cells on leukemia L1210 cells of the serie.
(§2) After 5 hours, the cells were attached to a plastic support and the products to be tested whose solutions had been formed in water or in DMSO (dimethylsulphoxide) if the product was little soluble in water, was added. In the latter case a control was carried out with the same final concentration of DMSO in the culture medium.
(§3) The state of the cells was examined 24, 48 and 72 hours later.
In the case of the L1210 cells, the tests were carried out in a medium gelled with agarose, the L1210 cells growing in suspension.

A further data set deals with HS5 cells. The data set is described as follows: In vitro cytotoxic study on hamster cells converted by the virus of the hamster sarcoma, clone HS5 (Table XVI). In kind it is cell-based. To be noted: for IC (100 (complete growth inhibition, minimal)): Mesocricetus auratus, read-out: Minimal dose leading to a complete inhibition of the growth. The protocol:
Cytotoxic "in vitro" study on hamster cells on leukemia L1210 cells of the serie. In particular, the line BHK 21 of hamster cells and a clone derived from this line were used, converted by the virus of the hamster sarcoma (clone HS5). […] STOKER and […] Virology, 14, 1961, 359]. After 5 hours, the cells were attached to a plastic support and the products to be tested whose solutions had been formed in water or in DMSO (dimethylsulphoxide) if the product was little soluble in water, was added. In the latter case a control was carried out with the same final concentration of DMSO in the culture medium. The state of the cells was examined 24, 48 and 72 hours later.

Another data set has as its system C13/8 cells. The data set is described as follows: In vitro cytotoxic study on hamster cells, complete inhibition of growth, C13/8 (Table XVI). In kind it is cell-based. To be noted: for IC (100 (complete growth inhibition, minimal)): Mesocricetus auratus, read-out: Minimal dose leading to a complete inhibition of the growth.
Text: as §1
In particular, the line BHK 21 of hamster cells and a clone derived from this line were used, converted by the virus of the hamster sarcoma (clone HS5).
After detachment by trypsin, the cells were placed under culture in plastic Petri dishes of 35 mm diameter at the concentration of 2.10^5 cells/dish, in a "Eagle" culture medium supplemented with "Bactotryptophosphate Broth Difco" and with 10% of calf serum [M. STOKER and I. MAC-PHERSON Virology, 14, 1961, 359].
as §2, §3

For data set [1], the system named is cells of viro-induced leukemia of Friend. The experiment in a line: In vitro cytotoxic study on cells of the Friend leukemia of the mouse (Table XV). It counts as cell-based. The note with it: for IC50 / IC100: Mus musculus, 24 h; for IC50: read-out: LD 50 (50% lethal dose); for IC100: read-out: LD 100 (100% lethal dose); for LD 50 HUM / LD 50 product: ratio to reference HUM. As to the method: "In vitro" cytotoxic study of the compounds of the invention on the cells of viro-induced leukemia of Friend in the mouse [J. Exp. Med. 1957, 105, p. 307-318].
The cells were grown in suspension in the RPMI 1640 medium [catalogue of GIBCO Bio-Cult-Ltd, Washington Road Sandyford Industrial Estate Paisley PA3 4EP Renfrewshire Scotland] supplement with 20% of embryonary calf serum, with penicillin and with streptopycin. The duplication time of the culture was about 11 hours. The growth factor is equal to 1 or very close to 1 (all the cells multiplying).
The cultures were seeded at times t=0 at the concentration of 2×10^5 cells per ml in Falcon dishes containing 4 ml of medium. 24 hours later, the product to be tested (in solution, in acetic water) was added, at the moment when the cells were in the exponential growth phase. 24 hours after the addition of the product, the cells were counted and the percentage of living cells determined by an exclusion test with trypan blue.

A further data set concerns leukemia L1210. The experiment in a line: Leukemia L1210 in vivo, measurement of survival time (Table XII). Also noted: species or system B6 D2 Fl (C 57 Bl/6×DBA/2) Fl mice; MST: unit not given here. The note with it: 10^5 cells, i.p. As to the method:
The following pharmacological trials relate to the effects of the compounds of the invention on leukemia L1210 in vivo.
G. Proc. Nat. Acad. Sci. 1972, 69, 1042-1047 and Schepartz S., Screening 1971, Cancer Chemother. Part 3; Vol. 2, p. 3].
The properties were determined by the curative action inoculated experimental leukemia L1210. This leukemia was maintained on B6 D2 Fl (C 57 Bl/6×DBA/2) Fl mice in the proportion of 6 or 10 mice per experimental batch. The compounds to be tested were injected by the intraperitoneal route one or several days after inoculation of the cells (1 injection only). […] The death interval was determined, the first figure of the Table indicating the date of the first mouse death and the second the date of the last mouse death. The mean survival time was also measured (MST). A characteristic value is the percentage of increased life span (ILS %). This value (Cancer. Res. 1971, 31, 1883-1887) is the ratio: [formula] where S^t =survival of treated animals and
S^c =survival of control animals.

The next data set relates to cell cultures. The experiment in a line: Cytotoxicity in pharmacological tests (general statements). It counts as cell-based.
[2] abbreviates: L1210, medium gelled with agarose.

Where only a bound is given, the exact number is not on record here.

As to `CCN(CC)CCCNc1nccc2c(C)c3[nH]c4ccncc4c3cc12` [BD 40, reference compound], the results for the “Minimal dose leading to a complete inhibition of the growth” value in the data set with L1210 cells (setting [2]), with HS5 cells and in the data set with C13/8 cells were 0.2 μ M, 0.25 μ M and 0.25 μ M, respectively.

As for `COc1ccc2[nH]c3c(C)c4ccnc(NCCN)c4cc3c2c1` [Compound 11], in the data set with HS5 cells, the IC (100 (complete growth inhibition, minimal)) came out at 1 µM. The IC (100 (complete growth inhibition, minimal)) in the data set with C13/8 cells is 1 µM. For the same compound, in data set [1], the “activity compared with HUM / known derivatives” value is reported as “more active than the derivatives already known”, the IC50 is 0.1 µM, the IC100 worked out at 0.25 µM and the “LD 50 HUM / LD 50 product” value was 3.

For the compound `COc1ccc2[nH]c3c(C)c4ccnc(NCCCN)c4cc3c2c1` [Compound 12], in the data set with HS5 cells, the IC (100 (complete growth inhibition, minimal)) stood at 2 µM. Moreover, the IC (100 (complete growth inhibition, minimal)) in the data set on C13/8 cells was found to be 2 µM. In data set [1], the IC50 worked out at 0.25 µM, the IC100 was 0.7 µM and the “LD 50 HUM / LD 50 product” value is listed as 1.5.

In the case of `COc1ccc2[nH]c3c(C)c4ccnc(NCCCCN)c4cc3c2c1` [Compound 13], the IC (100 (complete growth inhibition, minimal)) with HS5 cells was found to be 2 µM. Also, the IC (100 (complete growth inhibition, minimal)) with C13/8 cells was 2 µM. Moreover, in data set [1], the IC50 is 7 µM, the IC100 turned out to be 15 µM and the “LD 50 HUM / LD 50 product” value is 0.04.

As to `COc1ccc2[nH]c3c(C)c4ccnc(NCCCCCN)c4cc3c2c1` [Compound 14], the IC (100 (complete growth inhibition, minimal)) with HS5 cells turned out to be 2 µM. Besides, the IC (100 (complete growth inhibition, minimal)) with C13/8 cells is 2 µM. Moreover, in data set [1], the IC50 came to 0.5 µM, the IC100 was 1.5 µM and the “LD 50 HUM / LD 50 product” value came out at 0.6.

Regarding `COc1ccc2[nH]c3c(C)c4ccnc(NCCCCCCN)c4cc3c2c1` [Compound 15], the IC (100 (complete growth inhibition, minimal)) in the data set on HS5 cells was 2 µM. The IC (100 (complete growth inhibition, minimal)) in the data set with C13/8 cells is 2 µM. For the same compound, in data set [1], the IC50 was 0.8 µM, the IC100 amounted to 2 µM and the “LD 50 HUM / LD 50 product” value is on record as 0.4.

In the case of `COc1ccc2[nH]c3c(C)c4ccnc(NCCN(C)C)c4cc3c2c1` [Compound 16], the IC (100 (complete growth inhibition, minimal)) in the data set on HS5 cells stood at 2 µM. Moreover, the IC (100 (complete growth inhibition, minimal)) in the data set on C13/8 cells turned out to be 1 µM. Also, in data set [1], the IC50 worked out at 0.8 µM, the IC100 stood at 3 µM and the “LD 50 HUM / LD 50 product” value stood at 0.4.

For `COc1ccc2[nH]c3c(C)c4ccnc(NCCCN(C)C)c4cc3c2c1` [Compound 17], in the data set on HS5 cells, the IC (100 (complete growth inhibition, minimal)) was 2 µM. The IC (100 (complete growth inhibition, minimal)) with C13/8 cells amounted to 1 µM. Besides, in data set [1], the IC50 turned out to be 1.5 µM, the IC100 is 3 µM and the “LD 50 HUM / LD 50 product” value is 0.2.

As to `CCN(CC)CCCNc1nccc2c(C)c3[nH]c4ccc(OC)cc4c3cc12` [Compound 18], in the data set on HS5 cells, the IC (100 (complete growth inhibition, minimal)) was 5 µM. Also, in the data set on leukemia L1210 (20 mg/kg, day +3), the “Death interval (mice)” value is on record as 13-19, the ILS % came to 38.8% and the MST turned out to be 16.1. For the same compound, in the data set on C13/8 cells, the IC (100 (complete growth inhibition, minimal)) is 5 µM. Further, in data set [1], the IC50 stood at 0.5 µM, the IC100 was 1.5 µM and the “LD 50 HUM / LD 50 product” value is recorded as 0.6.

As to `CCN(CC)CCCC(C)Nc1nccc2c(C)c3[nH]c4ccc(OC)cc4c3cc12` (centres unmarked) [Compound 19], in the data set with leukemia L1210 (10 mg/kg, day +4), the “Death interval (mice)” value is 11-16, the ILS % worked out at 25% and the MST was 13. In the data set with leukemia L1210 (20 mg/kg, day +4), the “Death interval (mice)” value is 11-16, the ILS % amounted to 19.2% and the MST came to 12.4. In data set [1], the IC50 is 1.3 µM, the IC100 worked out at 3 µM and the “LD 50 HUM / LD 50 product” value is 0.2.

With `COc1ccc2[nH]c3c(C)c4ccnc(N5CCCCC5)c4cc3c2c1` [Compound 21], the “cytotoxic activity” value in the data set on cell cultures is recorded as “not cytotoxic”. For the same compound, the IC (100 (complete growth inhibition, minimal)) in the data set on HS5 cells was above 5 µM. Moreover, in the data set on C13/8 cells, the IC (100 (complete growth inhibition, minimal)) is above 5 µM. In data set [1], the IC50 was found to be 35 µM, the IC100 was 100 µM and the “LD 50 HUM / LD 50 product” value is reported as 1.1.

On to `Cc1c2ccnc(NCCCN)c2cc2c1[nH]c1ccc(OCc3ccccc3)cc12` [Compound 23], for which, in data set [1], the IC50 was 0.3 µM, the IC100 turned out to be 0.9 µM and the “LD 50 HUM / LD 50 product” value was determined as 1.

In the case of `CCN(CC)CCCNc1nccc2c(C)c3[nH]c4ccc(OCc5ccccc5)cc4c3cc12` [Compound 24], the IC (100 (complete growth inhibition, minimal)) with L1210 cells (setting [2]) stood at 0.4 µM. The “activity compared with the reference BD40” value in the data set on L1210 cells (summary of Table XVI) is “almost as active as the reference dipyrido-indole (BD40)”. Further, in data set [1], the IC50 came out at 3 µM, the IC100 was found to be 10 µM and the “LD 50 HUM / LD 50 product” value is reported as 0.1.

As to `COc1ccc2[nH]c3c(C)c4ccnc(NCCCN)c4c(C)c3c2c1` [Compound 25], the IC (100 (complete growth inhibition, minimal)) in the data set on L1210 cells (setting [2]) stood at 0.9 µM. Also, in the data set on leukemia L1210 (10 mg/kg, day +4), the “Death interval (mice)” value is on record as 12-13, the ILS % is 21.1% and the MST is 12.6. In addition, in the data set on leukemia L1210 (20 mg/kg, day +4), the “Death interval (mice)” value was 8-12 and the MST is given as 9.6. In data set [1], the “activity compared with HUM / known derivatives” value was “more active than the derivatives already known”, the IC50 was 0.12 µM, the IC100 amounted to 0.3 µM and the “LD 50 HUM / LD 50 product” value was determined as 3.

For `COc1ccc2[nH]c3c(C)c4ccnc(NCCCN(C)C)c4c(C)c3c2c1` [Compound 26], in the data set on leukemia L1210 (10 mg/kg, day +4), the “Death interval (mice)” value is on record as 12-16, the ILS % is on record as 38.5% and the MST is reported as 14.4. In addition, in the data set on leukemia L1210 (20 mg/kg, day +4), the “Death interval (mice)” value is listed as 16-19, the ILS % was 67.3% and the MST is given as 17.4. For the same compound, in data set [1], the IC50 was determined as 0.4 µM, the IC100 came out at 1 µM and the “LD 50 HUM / LD 50 product” value turned out to be 0.75.

For the compound `CCN(CC)CCCNc1nccc2c(C)c3[nH]c4ccc(O)cc4c3cc12` [Compound 29], in the data set with leukemia L1210 (10 mg/kg, day +4), the “Death interval (mice)” value is on record as 15-17, the ILS % is 55.8% and the MST is reported as 16.2. In the data set with leukemia L1210 (20 mg/kg, day +4), the “Death interval (mice)” value is 10-15, the ILS % came to 19.2% and the MST is 12.4. For the same compound, in data set [1], the “activity compared with HUM / known derivatives” value is recorded as “more active than the derivatives already known”, the IC50 worked out at 0.017 µM, the IC100 stood at 0.04 µM and the “LD 50 HUM / LD 50 product” value came out at 18.

`Cc1c2cc[n+](C)cc2c(C)c2c1[nH]c1ccc(O)cc12` [HUM, 2-methyl-9-hydroxy ellipticinium acetate, reference compound]: in data set [1], the IC50 was 0.3 µM and the IC100 is 0.8 µM.
